Results published in ChEMBL document CHEMBL3885881, “DrugMatrix”.

Organism: Rattus norvegicus
Experiment: DrugMatrix - Regimen: Daily Repeat
Assay type: toxicity, organism-based, Sprague-Dawley
Parameters: regimen Daily Repeat, gender Male, age 6-8 weeks
Settings: in vivo, po, route oral GAVAGE, vehicle 100 % SALINE; for ABSOLUTE BASOPHIL / ABSOLUTE EOSINOPHIL / ABSOLUTE LYMPHOCYTE / ABSOLUTE MONOCYTE / ABSOLUTE SEGMENTED NEUTROPHIL / BASOPHIL / EOSINOPHIL / ERYTHROCYTE COUNT / HEMATOCRIT / HEMOGLOBIN / LEUKOCYTE COUNT / LYMPHOCYTE / MEAN CORPUSCULAR HEMOGLOBIN / MEAN CORPUSCULAR HEMOGLOBIN CONCENTRATION / MEAN CORPUSCULAR VOLUME / MONOCYTE / NEUTROPHIL / NUCLEATED RED BLOOD CELLS / PLATELET COUNT: tissue Blood; for ALANINE AMINOTRANSFERASE / ALBUMIN / ALKALINE PHOSPHATASE / ASPARTATE AMINOTRANSFERASE / BLOOD UREA NITROGEN / CARBON DIOXIDE / CHLORIDE / CHOLESTEROL / CREATINE PHOSPHOKINASE / CREATININE / GLUCOSE / LACTATE DEHYDROGENASE / LIPASE / PHOSPHORUS / POTASSIUM / SODIUM / TOTAL BILIRUBIN / TOTAL PROTEIN / URIC ACID: tissue Plasma
[1] = 0 mg/kg, 72 h, dose level Control, time 3 day
[2] = 0 mg/kg, 120 h, dose level Control, time 5 day
[3] = 46 mg/kg, 72 h, dose level Low, time 3 day

COc1ccc2cc(CC(=O)O)ccc2c1
ABSOLUTE BASOPHIL [1]: 0 CELLS/uL | ABSOLUTE EOSINOPHIL [1]: 26.83 CELLS/uL | ABSOLUTE LYMPHOCYTE [1]: 12748.5 CELLS/uL | ABSOLUTE MONOCYTE [1]: 140.5 CELLS/uL | ABSOLUTE SEGMENTED NEUTROPHIL [1]: 1067.5 CELLS/uL | BASOPHIL [1]: 0% | EOSINOPHIL [1]: 0.17% | ERYTHROCYTE COUNT [1]: 5.51 x10E6/uL | HEMATOCRIT [1]: 34.75% | HEMOGLOBIN [1]: 13.65 G/DL | LEUKOCYTE COUNT [1]: 13.98 x10E3/uL | LYMPHOCYTE [1]: 91.17% | MEAN CORPUSCULAR HEMOGLOBIN [1]: 24.8 pg | MEAN CORPUSCULAR HEMOGLOBIN CONCENTRATION [1]: 39.33 G/DL | MEAN CORPUSCULAR VOLUME [1]: 63.03 fL | MONOCYTE [1]: 1% | NEUTROPHIL [1]: 7.67% | NUCLEATED RED BLOOD CELLS [1]: 0 /100WBC | PLATELET COUNT [1]: 1278.17 x10E3/uL | ALANINE AMINOTRANSFERASE [1]: 52.17 u/L | ALBUMIN [1]: 4.07 G/DL | ALKALINE PHOSPHATASE [1]: 416.83 u/L | ASPARTATE AMINOTRANSFERASE [1]: 109.67 u/L | BLOOD UREA NITROGEN [1]: 16.83 mg/dL | CARBON DIOXIDE [1]: 28 mmol/L | CHLORIDE [1]: 100.83 MEQ/L | CHOLESTEROL [1]: 69 mg/dL | CREATINE PHOSPHOKINASE [1]: 1155.67 u/L | CREATININE [1]: 0.32 mg/dL | GLUCOSE [1]: 186.5 mg/dL | LACTATE DEHYDROGENASE [1]: 345.67 u/L | LIPASE [1]: 12.17 u/L | PHOSPHORUS [1]: 12.45 mg/dL | POTASSIUM [1]: 6.85 MEQ/L | SODIUM [1]: 141.4 MEQ/L | TOTAL BILIRUBIN [1]: 0.23 mg/dL | TOTAL PROTEIN [1]: 5.63 G/DL | URIC ACID [1]: 2.22 mg/dL | ABSOLUTE BASOPHIL [2]: 0 CELLS/uL | ABSOLUTE EOSINOPHIL [2]: 114.33 CELLS/uL | ABSOLUTE LYMPHOCYTE [2]: 11655.33 CELLS/uL | ABSOLUTE MONOCYTE [2]: 142 CELLS/uL | ABSOLUTE SEGMENTED NEUTROPHIL [2]: 1055 CELLS/uL | BASOPHIL [2]: 0% | EOSINOPHIL [2]: 0.83% | ERYTHROCYTE COUNT [2]: 5.68 x10E6/uL | HEMATOCRIT [2]: 35.92% | HEMOGLOBIN [2]: 14.13 G/DL | LEUKOCYTE COUNT [2]: 12.97 x10E3/uL | LYMPHOCYTE [2]: 90% | MEAN CORPUSCULAR HEMOGLOBIN [2]: 24.93 pg | MEAN CORPUSCULAR HEMOGLOBIN CONCENTRATION [2]: 39.37 G/DL | MEAN CORPUSCULAR VOLUME [2]: 63.33 fL | MONOCYTE [2]: 1.17% | NEUTROPHIL [2]: 8% | NUCLEATED RED BLOOD CELLS [2]: 0 /100WBC | PLATELET COUNT [2]: 1234 x10E3/uL | ALANINE AMINOTRANSFERASE [2]: 43.5 u/L | ALBUMIN [2]: 4.23 G/DL | ALKALINE PHOSPHATASE [2]: 331.5 u/L | ASPARTATE AMINOTRANSFERASE [2]: 80.83 u/L | BLOOD UREA NITROGEN [2]: 17.67 mg/dL | CARBON DIOXIDE [2]: 31.83 mmol/L | CHLORIDE [2]: 100.83 MEQ/L | CHOLESTEROL [2]: 69.5 mg/dL | CREATINE PHOSPHOKINASE [2]: 320 u/L | CREATININE [2]: 0.26 mg/dL | GLUCOSE [2]: 157.33 mg/dL | LACTATE DEHYDROGENASE [2]: 364.67 u/L | LIPASE [2]: 9.83 u/L | PHOSPHORUS [2]: 11.05 mg/dL | POTASSIUM [2]: 5.83 MEQ/L | SODIUM [2]: 141.07 MEQ/L | TOTAL BILIRUBIN [2]: 0.22 mg/dL | TOTAL PROTEIN [2]: 5.92 G/DL | URIC ACID [2]: 1.23 mg/dL | ABSOLUTE BASOPHIL [3]: 0 CELLS/uL | ABSOLUTE EOSINOPHIL [3]: 49.33 CELLS/uL | ABSOLUTE LYMPHOCYTE [3]: 12249.33 CELLS/uL | ABSOLUTE MONOCYTE [3]: 224.67 CELLS/uL | ABSOLUTE SEGMENTED NEUTROPHIL [3]: 1176.67 CELLS/uL | BASOPHIL [3]: 0% | EOSINOPHIL [3]: 0.33% | ERYTHROCYTE COUNT [3]: 5.54 x10E6/uL | HEMATOCRIT [3]: 33.9% | HEMOGLOBIN [3]: 13.13 G/DL | LEUKOCYTE COUNT [3]: 13.7 x10E3/uL | LYMPHOCYTE [3]: 89.67% | MEAN CORPUSCULAR HEMOGLOBIN [3]: 23.73 pg | MEAN CORPUSCULAR HEMOGLOBIN CONCENTRATION [3]: 38.77 G/DL | MEAN CORPUSCULAR VOLUME [3]: 61.23 fL | MONOCYTE [3]: 1.67% | NEUTROPHIL [3]: 8.33% | NUCLEATED RED BLOOD CELLS [3]: 0 /100WBC | PLATELET COUNT [3]: 1182.67 x10E3/uL | ALANINE AMINOTRANSFERASE [3]: 61.33 u/L | ALBUMIN [3]: 4.13 G/DL | ALKALINE PHOSPHATASE [3]: 328.67 u/L | ASPARTATE AMINOTRANSFERASE [3]: 85.67 u/L | BLOOD UREA NITROGEN [3]: 16 mg/dL | CARBON DIOXIDE [3]: 34 mmol/L | CHLORIDE [3]: 102.33 MEQ/L | CHOLESTEROL [3]: 75.67 mg/dL | CREATINE PHOSPHOKINASE [3]: 347.33 u/L | CREATININE [3]: 0.4 mg/dL | GLUCOSE [3]: 150.67 mg/dL | LACTATE DEHYDROGENASE [3]: 245.33 u/L | LIPASE [3]: 9 u/L | PHOSPHORUS [3]: 11.63 mg/dL | POTASSIUM [3]: 6.77 MEQ/L | SODIUM [3]: 143.43 MEQ/L | TOTAL BILIRUBIN [3]: 0.13 mg/dL | TOTAL PROTEIN [3]: 5.33 G/DL | URIC ACID [3]: 1.3 mg/dL
